Source: ChEMBL document CHEMBL1201862, “PubChem BioAssay data set” (2004)
Activity calls are given as the source filed them. Rule as the data show it, for most assays here: actives have a measured EC50 and inactives only a lower limit.

Experiments:
[1] = target: T1, Replicative DNA helicase DnaB (Mycobacterium tuberculosis, UniProt P9WMR3); experiment: DnaB intein splicing inhibitors, dose response, biochemical, cell-free fluorescence (AID 449749); type: functional
T1 sequence (P9WMR3 whole entry): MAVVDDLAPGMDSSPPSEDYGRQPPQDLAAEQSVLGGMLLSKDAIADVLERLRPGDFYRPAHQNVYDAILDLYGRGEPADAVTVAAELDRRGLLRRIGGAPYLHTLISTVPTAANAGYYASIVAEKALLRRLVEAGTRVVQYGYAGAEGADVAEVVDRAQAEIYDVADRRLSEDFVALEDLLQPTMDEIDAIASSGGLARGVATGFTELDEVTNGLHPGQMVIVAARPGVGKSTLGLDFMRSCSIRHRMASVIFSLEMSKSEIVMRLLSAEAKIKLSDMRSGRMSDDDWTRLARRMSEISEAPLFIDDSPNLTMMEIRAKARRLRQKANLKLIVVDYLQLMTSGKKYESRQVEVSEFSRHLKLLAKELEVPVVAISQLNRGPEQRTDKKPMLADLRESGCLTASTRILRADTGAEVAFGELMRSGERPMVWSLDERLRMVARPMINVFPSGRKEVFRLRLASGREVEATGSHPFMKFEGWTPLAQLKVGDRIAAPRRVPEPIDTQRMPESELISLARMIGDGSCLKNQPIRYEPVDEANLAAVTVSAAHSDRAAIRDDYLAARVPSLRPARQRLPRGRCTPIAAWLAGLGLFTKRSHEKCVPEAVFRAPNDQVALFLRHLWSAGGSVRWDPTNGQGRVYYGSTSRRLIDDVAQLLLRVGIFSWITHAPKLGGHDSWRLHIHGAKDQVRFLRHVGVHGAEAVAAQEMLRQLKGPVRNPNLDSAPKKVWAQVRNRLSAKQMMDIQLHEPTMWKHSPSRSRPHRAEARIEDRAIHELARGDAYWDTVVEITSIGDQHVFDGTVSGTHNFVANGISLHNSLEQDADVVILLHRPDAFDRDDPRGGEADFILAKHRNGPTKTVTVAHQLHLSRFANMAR

Protein RecA = target: T2, Protein RecA (Mycobacterium tuberculosis, UniProt P9WHJ3); experiment: Fluorescence Cell-Free Homogeneous Dose Retest to Identify Inhibitors of RecA-Intein Splicing Activity. [Related pubchem assays (depositor defined):AID2097, AID2223, AID489010, AID492950]; type: functional
T2 sequence (P9WHJ3 whole entry): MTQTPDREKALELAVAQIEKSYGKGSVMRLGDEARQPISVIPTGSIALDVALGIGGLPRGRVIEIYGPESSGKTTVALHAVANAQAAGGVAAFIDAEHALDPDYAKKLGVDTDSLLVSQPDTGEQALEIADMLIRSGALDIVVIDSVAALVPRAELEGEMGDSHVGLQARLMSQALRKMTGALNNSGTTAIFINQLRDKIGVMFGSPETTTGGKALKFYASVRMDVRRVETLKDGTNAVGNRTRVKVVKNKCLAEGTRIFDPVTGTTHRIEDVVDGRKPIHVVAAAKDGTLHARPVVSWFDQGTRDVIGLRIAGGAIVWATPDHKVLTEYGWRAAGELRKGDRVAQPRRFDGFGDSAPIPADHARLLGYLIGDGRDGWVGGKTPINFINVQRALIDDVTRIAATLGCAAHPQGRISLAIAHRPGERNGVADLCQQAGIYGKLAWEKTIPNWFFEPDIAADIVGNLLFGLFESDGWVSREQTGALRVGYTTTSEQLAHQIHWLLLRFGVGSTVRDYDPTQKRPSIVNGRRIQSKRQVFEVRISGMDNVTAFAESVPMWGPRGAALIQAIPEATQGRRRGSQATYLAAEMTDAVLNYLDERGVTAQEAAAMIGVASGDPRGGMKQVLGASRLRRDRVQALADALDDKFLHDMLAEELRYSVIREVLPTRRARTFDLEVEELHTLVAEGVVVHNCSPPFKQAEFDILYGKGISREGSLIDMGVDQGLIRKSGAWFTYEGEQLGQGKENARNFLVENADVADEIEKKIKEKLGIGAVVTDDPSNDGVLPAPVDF

Cytochrome P450 2C9 = Cytochrome P450 2C9 (Homo sapiens, UniProt P11712)
[2] = inhibitors of intracellular T. cruzi replication, confirmation, NIH3T3 host cells, beta-gal luminescence (AID 2044); type: functional, cell-based;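 also: intracellular parasites grown in NIH/3T3 mouse fibroblasts as host cells; luminescent beta-galactosidase reporter signal from transgenic T. cruzi replicating inside host cells; inhibitors lower the luminescence signal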
[3] = cytotoxicity toward NIH3T3 fibroblasts, dose response, counter-screen, cell-based, ATP luminescence, mouse fibroblasts (AID 2010); type: functional;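 also: cells exposed to compound for about 90 hours before reading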
[4] = tested on: Streptococcus sp. 'group A'; experiment: growth inhibition of control SK(-) GAS strain, dose response, counter-screen for streptokinase expression inhibitor project, luminescence, kanamycin, BacTiterGlo, confirmation (AID 1900); type: functional, organism-based
Streptococcus = experiment: Group A Streptococcus viability loss, dose response, counter-screen for streptokinase expression inhibitor project, luminescence, BacTiterGlo (AID 1915); type: functional, organism-based;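 also: potency for reduction of bacterial viability or growth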

Sequence of Cytochrome P450 2C9 (P11712 whole entry): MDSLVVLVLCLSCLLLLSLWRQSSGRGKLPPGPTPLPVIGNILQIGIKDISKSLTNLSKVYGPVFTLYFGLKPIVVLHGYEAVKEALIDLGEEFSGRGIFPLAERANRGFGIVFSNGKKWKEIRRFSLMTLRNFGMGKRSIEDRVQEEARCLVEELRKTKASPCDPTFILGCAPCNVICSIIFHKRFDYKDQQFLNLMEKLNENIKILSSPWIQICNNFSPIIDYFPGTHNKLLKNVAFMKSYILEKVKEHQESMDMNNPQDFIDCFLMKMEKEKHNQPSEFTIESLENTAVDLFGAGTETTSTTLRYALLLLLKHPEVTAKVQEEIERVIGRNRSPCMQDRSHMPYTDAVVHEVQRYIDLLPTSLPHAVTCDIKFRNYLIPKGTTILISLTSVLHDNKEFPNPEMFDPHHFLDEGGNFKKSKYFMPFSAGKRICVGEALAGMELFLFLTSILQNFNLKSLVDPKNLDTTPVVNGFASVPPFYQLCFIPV

In the case of `CCC1C(=O)N(c2nc(C)cc(C)n2)N=C1C` (configuration not stated), the AC50 [1] is reported as 8.34 µM (active) and the EC50 (Protein RecA) is reported as 3.3 µM (active).
With `C#CCOC(=O)c1ccccc1C(=O)n1nnc2ccccc21` the AC50 [1] was 6.81 µM (active) and the EC50 (Protein RecA) was 8.84 µM (active).
For `CN(C)[C@@H]1C(O)=C(C(N)=O)C(=O)[C@]2(O)C(O)=C3C(=O)c4c(O)cccc4[C@@](C)(O)[C@H]3[C@H](O)[C@@H]12`, the AC50 (Cytochrome P450 2C9) was 5.01 µM (inconclusive).
In the case of `Cc1cc(C)c(C#N)c(SCc2nnc(-c3ccccc3[N+](=O)[O-])o2)n1`, the EC50 [2] is reported as 2.2 µM (active) and the EC50 [3] is reported as > 60 µM (not active).
In the case of `FC(F)(F)c1cccc(Oc2nc(-c3ccccc3)nnc2C(F)(F)F)c1`, the AC50 [1] is reported as 2.06 µM (active) and the EC50 (Protein RecA) is reported as 0.76 µM (active).
For `Cc1ccc(N=C(S)c2nc3ccccc3[nH]2)c(C)c1`, the EC50 [4] was 2.12 µM (active) and the EC50 (Streptococcus) was > 150 µM (not active).
For `COc1ccc([N+](=O)[O-])cc1NC(=O)COC(=O)C1CC1`, the EC50 [2] was > 60 µM (not active) and the EC50 [3] was > 60 µM (inconclusive).
With `O=C(CC[S+]([O-])NCc1ccccc1)NCc1ccccc1` (configuration not stated) the AC50 [1] was > 380 µM (inactive) and the EC50 (Protein RecA) was > 380 µM (inactive).
For `C/C(CC(=O)Nc1ccccn1)=N\NC(=O)Cc1cccc2ccccc12`, the AC50 [1] was 3.54 µM (active) and the EC50 (Protein RecA) was 2.73 µM (active).
In the case of `CCOc1ccccc1Oc1coc2cc(OC(=O)c3ccco3)ccc2c1=O`, the AC50 [1] is reported as > 380 µM (inactive) and the EC50 (Protein RecA) is reported as 35.7 µM (active).
For `Cc1cc(C)cc(C(=O)Nc2nc3ccccc3[nH]2)c1`, the EC50 [4] was 10.6 µM (active) and the EC50 (Streptococcus) was 7.31 µM (active).
For `COc1ccc(Nc2ncc3nc(-c4cccs4)c(=O)n(Cc4cccc(OC)c4)c3n2)cc1`, the AC50 (Cytochrome P450 2C9) was 39.8 µM (inconclusive).
For `O=C(NCc1ccc2c(c1)OCO2)c1ccc(N2CCCCCC2)c([N+](=O)[O-])c1`, the EC50 [2] was 0.709 µM (active) and the EC50 [3] was > 60 µM (not active).
For `O=C(O)CCc1ccc(-c2ccccc2)[nH]1`, the AC50 (Cytochrome P450 2C9) was 3.16 µM (inconclusive).
With `O=C(NC(=S)NNC(=O)[C@H]1C[C@@H]1c1ccccc1)c1ccc(F)cc1` the EC50 [4] was 0.775 µM (active) and the EC50 (Streptococcus) was 1.87 µM (active).
In the case of `CN1CCc2nc(SCC(=O)Nc3ccc(OC(F)(F)F)cc3)c(C#N)c(-c3cccs3)c2C1`, the AC50 [1] is reported as > 380 µM (inactive) and the EC50 (Protein RecA) is reported as 2.33 µM (active).
With `Cc1ccn2c(Nc3ccccc3C)c(-c3ccncc3)nc2c1` the EC50 [2] was 0.56 µM (active) and the EC50 [3] was > 60 µM (not active).
In the case of `COc1cc(/C=C/C(=O)OCC(=O)Nc2ccccc2Sc2ccc(Cl)cc2)ccc1O`, the AC50 [1] is reported as > 380 µM (inactive) and the EC50 (Protein RecA) is reported as 3.62 µM (active).
With `CC1CN(c2nc3ccccc3nc2C(C#N)C(=O)OC2CCCCC2)CC(C)O1` (configuration not stated) the EC50 [2] was 1.15 µM (active) and the EC50 [3] was 10.6 µM (active).
In the case of `N#C/C(=C/N1CCOCC1)c1ccccc1`, the AC50 (Cytochrome P450 2C9) is reported as 28.2 µM (inconclusive).
For `CC1=NN(Cc2ccccc2)C(=O)C1C(c1ccncc1)C(C#N)C#N` (configuration not stated), the AC50 [1] was 9.46 µM (active) and the EC50 (Protein RecA) was 3.52 µM (active).
In the case of `Cn1[nH]c(CSc2ccc(Cl)cc2)cc1=O`, the AC50 [1] is reported as 20.2 µM (active) and the EC50 (Protein RecA) is reported as 10 µM (active).
In the case of `Cc1cc(N2C(=O)C(O)=C(C(=O)c3cc4ccccc4o3)C2c2cccc(Cl)c2)no1` (configuration not stated), the EC50 [4] is reported as 2.09 µM (active) and the EC50 (Streptococcus) is reported as 5.36 µM (active).
With `COc1cccc(-c2cncnc2NCc2ccccc2OC)c1` the AC50 (Cytochrome P450 2C9) was 0.631 µM (inconclusive).
For `CN1CCN(C2=C(Cl)C(=O)N(c3ccc(Cl)cc3)C2=O)CC1`, the AC50 [1] was 1.07 µM (active) and the EC50 (Protein RecA) was 0.247 µM (active).
For `Cc1nc(Nc2nc(O)cc(-c3ccccc3)n2)nc2ccccc12`, the EC50 [4] was 4.95 µM (active) and the EC50 (Streptococcus) was 8.02 µM (active).
In the case of `O=C(Cn1cnc([N+](=O)[O-])n1)NCc1ccccc1`, the EC50 [2] is reported as 0.479 µM (active) and the EC50 [3] is reported as > 60 µM (not active).
For `O=C(N/N=C/c1cc(Br)cc([N+](=O)[O-])c1O)c1ccc(NC(=O)c2ccc(F)cc2)cc1`, the EC50 [4] was 2.34 µM (active) and the EC50 (Streptococcus) was 6.54 µM (active).
With `CCC(=O)N/N=C(\C)CC(=O)Nc1cccc([N+](=O)[O-])c1` the AC50 [1] was 23.4 µM (active) and the EC50 (Protein RecA) was 2.36 µM (active).
For `O=C(NC1CCCC1)C(c1ccncc1)N(Cc1ccco1)C(=O)c1ccc(-c2ccccc2)[nH]1` (configuration not stated), the EC50 [2] was 0.641 µM (active) and the EC50 [3] was > 30 µM (not active).
In the case of `CCOC(=O)C1(Cc2ccccc2)CCN(Cc2cnc(N3CCOCC3)s2)CC1`, the EC50 [2] is reported as 0.644 µM (active) and the EC50 [3] is reported as > 60 µM (inconclusive).
With `COc1ccc(C(=O)CSc2nc(O)cc(C(F)(F)F)c2C#N)cc1` the EC50 [4] was 3.58 µM (active) and the EC50 (Streptococcus) was 15.4 µM (active).
For `CC(O)CNc1nc2sc3c(c2c(=O)n1CCc1ccccc1)CCCCC3` (configuration not stated), the EC50 [2] was 1.89 µM (active) and the EC50 [3] was > 60 µM (not active).
For `O=C(CN(c1ccc(Br)cc1)S(=O)(=O)c1ccc(Cl)c([N+](=O)[O-])c1)NCCc1ccccc1`, the EC50 [2] was 0.592 µM (active) and the EC50 [3] was > 60 µM (not active).
With `O=C(Nc1nc(-c2ccco2)c(-c2ccco2)s1)c1cnccn1` the EC50 [2] was 5.79 µM (active) and the EC50 [3] was 8.94 µM (active).
For `O=c1c2c3c(sc2n(CCN2CCCC2)c(=O)n1Cc1ccco1)CCCCC3`, the EC50 [2] was 0.331 µM (active) and the EC50 [3] was > 30 µM (not active).
With `CCOC(=O)CN1N=C(/C=C/c2ccc(C)cc2)CCC1=O` the AC50 (Cytochrome P450 2C9) was 28.2 µM (inconclusive).
In the case of `CN(C)CCC1CCN(c2cc(C#N)c(C#N)cc2[N+](=O)[O-])CC1`, the EC50 [2] is reported as 0.345 µM (active) and the EC50 [3] is reported as > 60 µM (not active).
For `Cn1cc(C(=O)c2ccc(Cl)cc2Cl)cc1C(=O)O`, the AC50 (Cytochrome P450 2C9) was 14.1 µM (inconclusive).
For `CC(C)c1ccc(C(=O)NC(=S)Nc2ccc3[nH]c(O)nc3c2)cc1`, the EC50 [4] was 10.2 µM (active) and the EC50 (Streptococcus) was 53.6 µM (active).
In the case of `O=[N+]([O-])c1ccc(N2CCN(S(=O)(=O)c3ccc(Cl)c(Cl)c3)CC2)cc1NCCN1CCOCC1`, the EC50 [2] is reported as 1.68 µM (active) and the EC50 [3] is reported as > 60 µM (not active).
In the case of `N#CC1=C(N)Oc2[nH]nc(-c3cccs3)c2C1c1cccnc1` (configuration not stated), the EC50 (Protein RecA) is reported as > 380 µM (inactive).
With `Cc1nc2cnc(OCc3ccccc3)nc2n(Cc2ccc(F)cc2)c1=O` the AC50 (Cytochrome P450 2C9) was 10 µM (inconclusive).
In the case of `CCN1C(=O)c2c(C)nc3ccccc3c2C1=O`, the AC50 [1] is reported as 43.4 µM (active) and the EC50 (Protein RecA) is reported as 0.781 µM (active).
For `Cc1ccc(SCc2ccc(C(=O)Nc3cccc([N+](=O)[O-])c3C)cc2)cc1`, the EC50 [2] was 1.67 µM (active) and the EC50 [3] was > 30 µM (not active).
In the case of `CCNc1ncc2nc(-c3cn(C)c4ccccc34)c(=O)n(Cc3ccc(F)cc3)c2n1`, the AC50 (Cytochrome P450 2C9) is reported as 25.1 µM (inconclusive).
